Values of other authors as cited in paper PMC7395068, “The evolution of strategies to minimise the risk of human drug-induced liver injury (DILI) in drug discovery and development” (Archives of Toxicology, 2020).
Like-named read-outs stand apart in the source and are kept apart here.

Legend:
[1] = cited from earlier work
[2] = tested on: primary human hepatocytes, NIH3T3 fibroblasts, BSEP, CYP3A4; conditions: In vitro Assay; ref Schadt 2015; cited from earlier work
HepG2 cells [3] = conditions: cited from earlier work
human hepatocytes = conditions: cited from earlier work
[4] = cited from earlier work; remark: listed apart in the source
hu-MPCC = conditions: cited from earlier work
RMPCC's = conditions: cited from earlier work
[5] = tested on: THLE or HepG2 cells, isolated mitochondria, BSEP; conditions: In vitro Assay; ref Aleo 2019; cited from earlier work
PHH = conditions: cited from earlier work
hLiMTs = conditions: cited from earlier work
[6] = tested on: HepG2 C3A spheroid, BSEP, Glu/Gal in HepG2 cells, bioactivation; conditions: cited from earlier work
[7] = tested on: THLE-Null and THLE-3A4 cells; conditions: In vitro Assay; ref Gustafsson 2014; cited from earlier work
HepG2 cells [8] = conditions: cited from earlier work; remark: listed apart in the source
PHH spheroids = conditions: In vitro Assay; ref Vorrink 2018; cited from earlier work
[9] = tested on: HepG2 cells, primary human hepatocytes; conditions: cited from earlier work
[10] = ref Chen 2011; cited from earlier work
[11] = tested on: isolated mouse liver mitochondria; conditions: In vitro Assay; ref Porceddu 2012; cited from earlier work
rBsep = conditions: In vitro Assay; ref Dawson 2012; cited from earlier work
[12] = In vitro Assay, ref O'Brien 2006
[13] = In vitro Assay, ref Khetani 2012
[14] = In vitro Assay, ref Proctor 2017
[15] = In vitro Assay, ref Garside 2014
[16] = In vitro Assay, ref Persson 2013

Structure (SMILES) | DILI +VE (5-8), DILI -VE (-4) ([1]; ref Chen 2016) | DILI severity category ([1]; ref Chen 2016) | Cellular toxicity (3T3 cells) [2] | Combined Assay [2] | GSH adduct HML [2] | Hepatocyte cellular toxicity [2] | MitoTox 3T3 [2] | TDI CYP3A4 [2] | Structural based (HCI) (human hepatocytes; In vitro Assay, ref Xu 2008) | In vivo DILI ([4]; ref Khetani 2012) | In vivo DILI ([4]; ref Xu 2008) | HMPCC's (hu-MPCC; [13]) | RMPCC's (RMPCC's; [13]) | Partition Hybrid HRM Score [5] | Ro2 Hybrid HRM Score [5] | In vivo DILI ([4]; […]) | In vivo DILI ([4]; ref Aleo 2019) | hLiMTs ATP <20 x Cmax (PHH spheroids) | In vivo DILI ([4]; ref Vorrink 2018) | DILI Score (FDA) (1-8) [10] | other results
CC(=O)Oc1ccccc1C(=O)O [aspirin] | +VE | vLess-DILI-Concern | -VE | -VE | -VE | -VE | -VE | -VE | -VE | -VE | -VE | -VE | -VE |  |  |  |  |  |  |  | hBSEP inhibition [2]: -VE; Structural based (HCI) (HepG2 cells [3]; [12]): +VE; In vivo DILI ([4]; ref O'Brien 2006): +VE; In vivo DILI ([4]; ref Schadt 2015): -VE
CCc1oc2ccccc2c1C(=O)c1cc(Br)c(O)c(Br)c1 [benzbromarone] | +VE | vMost-DILI-Concern |  |  |  |  |  |  | +VE | +VE | +VE | +VE | +VE | +VE | +VE | +VE | +VE |  |  |  | PHH ATP <100uM (PHH; [14]): +VE (IC50 threshold of 100 µM); hLiMTs ATP <100uM (hLiMTs; [14]): +VE (IC50 threshold of 100 µM); Bayesian Machine Learning ([6]; In vitro Assay, ref Williams 2019): +VE; In vivo DILI ([4]; ref Gustafsson 2014): +VE; In vivo DILI ([4]; ref Proctor 2017): +VE; In vivo DILI ([4]; ref Williams 2019): +VE; THLE-Null [7]: +VE; THLE-Null/3A4 [7]: +VE
CNCCC(Oc1ccc(C(F)(F)F)cc1)c1ccccc1 (centres unmarked) [fluoxetine] | +VE | vLess-DILI-Concern | +VE | -VE | -VE | -VE | -VE | -VE |  | -VE | -VE |  |  |  |  | -VE | +VE | -VE | -VE | 3 | hBSEP inhibition [2]: -VE; Cluser analysis (HepG2 cells [8]): +VE; Structural based (HCI) (human hepatocytes): -VE; PHH ATP <100uM (PHH): -VE; hLiMTs ATP <100uM (hLiMTs): +VE (key: +VE: IC50 threshold of 100 µM); Bayesian Machine Learning [6]: +VE; In vivo DILI ([4]; ref Garside 2014): +VE; In vivo DILI ([4]; ref Persson 2013): +VE; In vivo DILI ([4]; ref Proctor 2017): +VE; In vivo DILI ([4]; ref Schadt 2015): -VE; In vivo DILI ([4]; ref Tolosa 2012): +VE; In vivo DILI ([4]; ref Williams 2019): +VE; HMPCC's (hu-MPCC): -VE; Cluster 1-6 +VE Assay [9]: +VE; RMPCC's (RMPCC's): -VE
CC(C(=O)O)c1ccc(-c2ccccc2)c(F)c1 (centres unmarked) [flurbiprofen] | -VE | Ambiguous DILI-concern | -VE | -VE | -VE | -VE | -VE | -VE | +VE | +VE | +VE | +VE | +VE | +VE | +VE |  |  |  |  | 3 | hBSEP inhibition [2]: -VE; In vivo DILI ([4]; ref Garside 2014): +VE; In vivo DILI ([4]; ref Gustafsson 2014): +VE; In vivo DILI ([4]; ref Schadt 2015): -VE; THLE-Null [7]: -VE; THLE-Null/3A4 [7]: -VE; Cluster 1-6 +VE Assay [9, 15]: -VE
CCN(CC)CC(=O)Nc1c(C)cccc1C [lidocaine] |  |  |  |  |  |  |  |  |  |  |  | +VE | +VE |  |  |  |  |  |  |  | Structural based (HCI) (HepG2 cells [3]; [12]): +VE; Cluser analysis (HepG2 cells [8]; [16]): -VE; Structural based (HCI) (HepG2 cells [8]; [16]): -VE; in vitro data EC20<=2uM [11]: +VE
Cc1cccc(Nc2ccccc2C(=O)O)c1C [mefenamic acid] | +VE | vMost-DILI-Concern |  |  |  |  |  |  | +VE | +VE | +VE | +VE | +VE |  |  | +VE |  | +VE (IC20 < 20 × Cmax.tot cut-off) | +VE |  | PHH ATP <100uM (PHH; [14]): +VE (IC50 threshold of 100 µM); hLiMTs ATP <100uM (hLiMTs; [14]): +VE (IC50 threshold of 100 µM); In vivo DILI ([4]; ref Porceddu 2012): +VE; In vivo DILI ([4]; ref Proctor 2017): -VE; in vitro data EC2<=1x Cmax [11]: +VE; in vitro data EC20<=2uM [11]: +VE
Cn1cc[nH]c1=S [methimazole] |  |  |  |  |  |  |  |  |  |  |  | -VE | -VE | -VE | -VE |  |  |  |  |  | Inhibition of rBsep cutoff<1& cmax u>.2 (rBsep): -VE; Inhibition of rBsep cutoff<3 (rBsep): -VE
CNCCC=C1c2ccccc2CCc2ccccc21 [nortriptyline] | +VE | vMost-DILI-Concern |  |  |  |  |  |  | -VE | +VE | +VE | +VE | +VE | +VE | +VE |  | +VE | +VE (IC20 < 20 × Cmax.tot cut-off) | +VE | 8 | 
CN1C(C(=O)Nc2ccccn2)=C(O)c2ccccc2S1(=O)=O [piroxicam] | +VE | vLess-DILI-Concern | -VE | -VE | -VE | -VE | -VE | -VE | -VE | +VE | +VE | -VE | +VE | -VE | +VE | +VE | +VE | -VE | +VE | 3 | hBSEP inhibition [2]: -VE; Structural based (HCI) (HepG2 cells [3]; [12]): +VE; Cluser analysis (HepG2 cells [8]; [16]): -VE; Structural based (HCI) (HepG2 cells [8]; [16]): -VE; In vivo DILI ([4]; ref O'Brien 2006): +VE; In vivo DILI ([4]; ref Persson 2013): +VE; In vivo DILI ([4]; ref Porceddu 2012): +VE; In vivo DILI ([4]; ref Schadt 2015): -VE; in vitro data EC2<=1x Cmax [11]: +VE; in vitro data EC20<=2uM [11]: +VE
CC(=O)[C@H]1CC[C@H]2[C@@H]3CCC4=CC(=O)CC[C@]4(C)[C@H]3CC[C@]12C [progesterone] | +VE | vLess-DILI-Concern |  |  |  |  |  |  | -VE | +VE | +VE | -VE | -VE |  |  | -VE |  | -VE | -VE |  | 
NC(=O)c1cnccn1 [pyrazinamide] | +VE | vLess-DILI-Concern |  |  |  |  |  |  | -VE | +VE | +VE | +VE | -VE | +VE | -VE | +VE | +VE |  |  | 3 | Structural based (HCI) (HepG2 cells [3]; [12]): +VE; In vivo DILI ([4]; ref Garside 2014): +VE; In vivo DILI ([4]; ref O'Brien 2006): +VE; In vivo DILI ([4]; ref Porceddu 2012): +VE; Cluster 1-6 +VE Assay [9, 15]: -VE; in vitro data EC2<=1x Cmax [11]: +VE; in vitro data EC20<=2uM [11]: +VE
C=C[C@H]1C[N@@]2CC[C@H]1C[C@H]2[C@H](O)c1ccnc2ccc(OC)cc12 [quinine] |  |  |  |  |  |  |  |  |  |  |  |  |  |  |  |  |  | +VE (IC20 < 20 × Cmax.tot cut-off) |  |  | DILI +VE (5-8), DILI -VE (-4) ([1]; in vivo): +VE; DILI severity category ([1]; in vivo): vLess-DILI-Concern; Structural based (HCI) (HepG2 cells [3]): +VE; In vivo DILI ([4]; in vivo): +VE; HMPCC's (hu-MPCC): +VE; RMPCC's (RMPCC's): +VE
O=c1n(CCCN2CCN(c3cccc(Cl)c3)CC2)nc2ccccn12 [trazodone] | +VE | vLess-DILI-Concern |  |  |  |  |  |  | +VE | +VE | +VE | +VE | +VE | +VE | +VE |  | +VE | +VE (IC20 < 20 × Cmax.tot cut-off) | +VE | 5 | 
